Converted amounts (≈) assume the structure as drawn.
Legend:
Pseudomonas aeruginosa [1] = assay: Antibacterial activity against Pseudomonas aeruginosa ATCC 9027 infected in cyclophosphamide immunosuppressed keratitis mouse model assessed as log reduction in number of viable bacterial colonies at 0.3 % administrated tropically; type: functional
Staphylococcus aureus [2] = assay: Antibacterial activity against Staphylococcus aureus ATCC 29213 by microbroth dilution assay; type: functional
Staphylococcus aureus [3] = assay: Antibacterial activity against methicillin resistant Staphylococcus aureus N315 by microbroth dilution assay; type: functional
Staphylococcus aureus [4] = assay: Antibacterial activity against methicillin resistant Staphylococcus aureus NCTC 10442 by microbroth dilution assay; type: functional
Escherichia coli = assay: Antibacterial activity against Escherichia coli ATCC 25922 by microbroth dilution assay; type: functional
Klebsiella pneumoniae [5] = assay: Antibacterial activity against Klebsiella pneumoniae ATCC 10031 by microbroth dilution assay; type: functional
Klebsiella pneumoniae [6] = assay: Antibacterial activity against Klebsiella pneumoniae ATCC 14581 by microbroth dilution assay; type: functional
Pseudomonas aeruginosa [7] = assay: Antibacterial activity against Pseudomonas aeruginosa ATCC 9027 by microbroth dilution assay; type: functional
[8] = Hemolytic activity in rabbit erythrocytes; type: toxicity, cell-based, Oryctolagus cuniculus, Erythrocyte
Klebsiella pneumoniae [9] = assay: Antibacterial activity against Klebsiella pneumoniae ATCC 10031 assessed as log reduction in bacterial load at 8 times MIC measured after 2 hrs by time kill assay; type: functional
Klebsiella pneumoniae [10] = assay: Induction of resistance development in Klebsiella pneumoniae ATCC 10031 assessed as fold increase in MIC treated over 20 serial passages by microdilution assay; type: functional
Staphylococcus aureus [11] = assay: Inhibition of biofilm formation in Staphylococcus aureus ATCC 29213 at MIC by crystal violet staining assay relative to control; type: functional
Klebsiella pneumoniae [12] = assay: Inhibition of biofilm formation in Klebsiella pneumoniae ATCC 10031 at MIC by crystal violet staining assay relative to control; type: functional
Staphylococcus aureus [13] = assay: Antibiofilm activity against 24 hrs preformed biofilm in Staphylococcus aureus ATCC 29213 assessed as residual biomass at 4 times MIC relative to control; type: functional
Klebsiella pneumoniae [14] = assay: Antibiofilm activity against 24 hrs preformed biofilm in Klebsiella pneumoniae ATCC 10031 assessed as residual biomass at 4 times MIC relative to control; type: functional
Staphylococcus aureus [15] = assay: Induction of resistance development in Staphylococcus aureus ATCC 29213 assessed as fold increase in MIC treated over 20 serial passages by microdilution assay; type: functional
Staphylococcus aureus [16] = assay: Antibacterial activity against Staphylococcus aureus ATCC 29213 assessed as log reduction in bacterial load at 4 times MIC measured after 2 hrs by time kill assay; type: functional
Staphylococcus aureus [17] = assay: Antibacterial activity against Staphylococcus aureus ATCC 29213 assessed as log reduction in bacterial load at 8 times MIC measured after 2 hrs by time kill assay; type: functional
Staphylococcus aureus [18] = assay: Antibacterial activity against Staphylococcus aureus ATCC 29213 infected in cyclophosphamide immunosuppressed keratitis mouse model assessed as log reduction in number of viable bacterial colonies at 50 mg/ml administrated tropically; type: functional

Compound | MIC (Staphylococcus aureus [2]) [µg/mL] | MIC (Staphylococcus aureus [3]) [µg/mL] | MIC (Staphylococcus aureus [4]) [µg/mL] | MIC (Escherichia coli) [µg/mL] | HC50 [8] [µg/mL] | other results
NC[C@H]1O[C@H](O[C@H]2[C@H](O)[C@@H](O[C@H]3O[C@H](CO)[C@@H](O)[C@H](N)[C@H]3O)[C@H](N)C[C@@H]2N)[C@H](N)C[C@@H]1O [TOBRAMYCIN] | – | – | – | – | – | log(activity) (Pseudomonas aeruginosa [1]): 4.71
CCCCCCCCCN1c2ccccc2Sc2ccc(OCC(=O)N[C@@H](CCCNC(=N)N)C(=O)N[C@@H](CCCNC(=N)N)C(=O)N[C@@H](CCCNC(=N)N)C(=O)OC)cc21 | 1.56 (≈ 1.77 µM) | 0.78 (≈ 0.884 µM) | 1.56 (≈ 1.77 µM) | 3.12 (≈ 3.54 µM) | > 200 | MIC (Klebsiella pneumoniae [5]): 12.5 µg/mL (≈ 14.2 µM); MIC (Klebsiella pneumoniae [6]): 12.5 µg/mL (≈ 14.2 µM); MIC (Pseudomonas aeruginosa [7]): 12.5 µg/mL (≈ 14.2 µM)
CCCCCCCCCN1c2ccccc2Sc2ccc(OCC(=O)N[C@@H](CCCNC(=N)N)C(=O)N[C@@H](CCCNC(=N)N)C(N)=O)cc21 | 1.56 (≈ 2.19 µM) | 1.56 (≈ 2.19 µM) | 0.78 (≈ 1.1 µM) | 1.56 (≈ 2.19 µM) | > 200 | MIC (Klebsiella pneumoniae [5]): 3.12 µg/mL (≈ 4.4 µM); MIC (Klebsiella pneumoniae [6]): 3.12 µg/mL (≈ 4.4 µM); MIC (Pseudomonas aeruginosa [7]): > 50 µg/mL
O=C(O)c1cn(C2CC2)c2cc(N3CCNCC3)c(F)cc2c1=O [CIPROFLOXACIN] | – | – | – | – | – | MIC (Klebsiella pneumoniae [5]): 0.195 µg/mL (≈ 0.589 µM); MIC (Klebsiella pneumoniae [6]): 0.195 µg/mL (≈ 0.589 µM); MIC (Pseudomonas aeruginosa [7]): 0.195 µg/mL (≈ 0.589 µM); log(activity) (Klebsiella pneumoniae [9]): 2.27; fold change (FC) (Klebsiella pneumoniae [10]): 128
CCCCCCCN1c2ccccc2Sc2ccc(OCC(=O)N[C@@H](CCCNC(=N)N)C(=O)N[C@@H](CCCNC(=N)N)C(=O)OC)cc21 | 1.56 (≈ 2.24 µM) | 1.56 (≈ 2.24 µM) | 1.56 (≈ 2.24 µM) | 6.25 (≈ 8.96 µM) | > 200 | MIC (Klebsiella pneumoniae [5]): 25 µg/mL (≈ 35.8 µM); MIC (Klebsiella pneumoniae [6]): 25 µg/mL (≈ 35.8 µM); MIC (Pseudomonas aeruginosa [7]): > 50 µg/mL
CC(C)=CCOc1ccc2c(c1)Nc1ccccc1S2 | > 50 | > 50 | > 50 | > 50 | > 200 | –
CC[C@H](C)[C@H](NC(=O)CN)C(=O)NCC(=O)N[C@@H](C)C(=O)N[C@H](C(=O)N[C@@H](CC(C)C)C(=O)N[C@@H](CCCCN)C(=O)N[C@H](C(=O)N[C@@H](CC(C)C)C(=O)N[C@H](C(=O)N[C@H](C(=O)NCC(=O)N[C@@H](CC(C)C)C(=O)N1CCC[C@H]1C(=O)N[C@@H](C)C(=O)N[C@@H](CC(C)C)C(=O)N[C@H](C(=O)N[C@@H](CO)C(=O)N[C@@H](Cc1c[nH]c2ccccc12)C(=O)N[C@H](C(=O)N[C@@H](CCCCN)C(=O)N[C@@H](CCCNC(=N)N)C(=O)N[C@@H](CCCCN)C(=O)N[C@@H](CCCNC(=N)N)C(=O)N[C@@H](CCC(N)=O)C(=O)N[C@@H](CCC(N)=O)C(N)=O)[C@@H](C)CC)[C@@H](C)CC)[C@@H](C)O)[C@@H](C)O)C(C)C)C(C)C [MELITTIN] | – | – | – | – | – | MIC (Klebsiella pneumoniae [5]): 6.25 µg/mL (≈ 2.2 µM); MIC (Klebsiella pneumoniae [6]): 6.25 µg/mL (≈ 2.2 µM); inhibition (INH) (Staphylococcus aureus [11]): >90%; inhibition (INH) (Klebsiella pneumoniae [12]): >90%; Activity (Staphylococcus aureus [13]): >10%; Activity (Klebsiella pneumoniae [14]): <10%
CCCCCCCCCN1c2ccccc2Sc2ccc(OCC(=O)OCC)cc21 | > 50 | > 50 | > 50 | > 50 | > 200 | –
CCCCCOc1ccc2c(c1)N(CCCCCCN(CC)CC)c1ccccc1S2 | 3.12 (≈ 7.09 µM) | 1.56 (≈ 3.54 µM) | 3.12 (≈ 7.09 µM) | > 50 | > 200 | –
CCCCCOc1ccc2c(c1)N(CCCCCCCCN(CC)CC)c1ccccc1S2 | 3.12 (≈ 6.67 µM) | 3.12 (≈ 6.67 µM) | 3.12 (≈ 6.67 µM) | > 50 | > 200 | –
CCCCCN1c2ccccc2Sc2ccc(OCC(=O)OCC)cc21 | > 50 | > 50 | > 50 | > 50 | > 200 | –
CCCCCCCOc1ccc2c(c1)Nc1ccccc1S2 | > 50 | > 50 | > 50 | > 50 | > 200 | –
CCCCCOc1ccc2c(c1)N(CCCCCCCCNC(=N)N)c1ccccc1S2 | 1.56 (≈ 3.43 µM) | 1.56 (≈ 3.43 µM) | 1.56 (≈ 3.43 µM) | > 50 | > 200 | –
CCn1cc(C(=O)O)c(=O)c2cc(F)c(N3CCNCC3)cc21 [NORFLOXACIN] | 1.56 (≈ 4.89 µM) | – | – | – | – | fold change (FC) (Staphylococcus aureus [15]): 1024
CCCCCCCCCN1c2ccccc2Sc2ccc(OCC(=O)N[C@@H](CCCNC(=N)N)C(=O)N[C@@H](CCCNC(=N)N)C(=O)OC)cc21 | 1.56 (≈ 2.15 µM) | 1.56 (≈ 2.15 µM) | 1.56 (≈ 2.15 µM) | 1.56 (≈ 2.15 µM) | > 200 | MIC (Klebsiella pneumoniae [5]): 3.12 µg/mL (≈ 4.3 µM); MIC (Klebsiella pneumoniae [6]): 6.25 µg/mL (≈ 8.61 µM); MIC (Pseudomonas aeruginosa [7]): 50 µg/mL (≈ 68.9 µM)
CCCCCN1c2ccccc2Sc2ccc(OCC(=O)N[C@@H](CCCNC(=N)N)C(=O)N[C@@H](CCCNC(=N)N)C(=O)OC)cc21 | 6.25 (≈ 9.33 µM) | 3.12 (≈ 4.67 µM) | 6.25 (≈ 9.33 µM) | > 50 | > 200 | –
CN[C@H](CC(C)C)C(=O)N[C@H]1C(=O)N[C@@H](CC(N)=O)C(=O)N[C@H]2C(=O)N[C@H]3C(=O)N[C@H](C(=O)N[C@H](C(=O)O)c4cc(O)cc(O)c4-c4cc3ccc4O)[C@H](O)c3ccc(c(Cl)c3)Oc3cc2cc(c3O[C@@H]2O[C@H](CO)[C@@H](O)[C@H](O)[C@H]2O[C@H]2C[C@](C)(N)[C@H](O)[C@H](C)O2)Oc2ccc(cc2Cl)[C@H]1O [VANCOMYCIN] | 0.78 (≈ 0.538 µM) | 1.56 (≈ 1.08 µM) | 1.56 (≈ 1.08 µM) | – | – | log(activity) (Staphylococcus aureus [16]): 0.03; log(activity) (Staphylococcus aureus [17]): 0.15; log(activity) (Staphylococcus aureus [18]): 5.2
CCCCCOc1ccc2c(c1)N(CCCCNC(=N)N)c1ccccc1S2 | 1.56 (≈ 3.91 µM) | 1.56 (≈ 3.91 µM) | 1.56 (≈ 3.91 µM) | 6.25 (≈ 15.7 µM) | > 200 | MIC (Klebsiella pneumoniae [5]): 6.25 µg/mL (≈ 15.7 µM); MIC (Klebsiella pneumoniae [6]): 25 µg/mL (≈ 62.7 µM); MIC (Pseudomonas aeruginosa [7]): > 50 µg/mL
CCCCCOc1ccc2c(c1)N(CCCCCCNC(=N)N)c1ccccc1S2 | 1.56 (≈ 3.66 µM) | 1.56 (≈ 3.66 µM) | 1.56 (≈ 3.66 µM) | > 50 | > 200 | –
CCCCCOc1ccc2c(c1)Nc1ccccc1S2 | > 50 | > 50 | > 50 | > 50 | > 200 | –
CCCCCCCOc1ccc2c(c1)N(CCCCNC(=N)N)c1ccccc1S2 | 3.12 (≈ 7.32 µM) | 0.78 (≈ 1.83 µM) | 0.78 (≈ 1.83 µM) | > 50 | > 200 | –
CCCCCN1c2ccccc2Sc2ccc(OCC(=O)N[C@@H](CCCNC(=N)N)C(=O)OC)cc21 | 12.5 (≈ 24.3 µM) | 3.12 (≈ 6.08 µM) | 6.25 (≈ 12.2 µM) | > 50 | > 200 | –
Oc1ccc2c(c1)Nc1ccccc1S2 | > 50 | > 50 | > 50 | > 50 | > 200 | –
CC(C)=CCOc1ccc2c(c1)N(CCCCN)c1ccccc1S2 | 6.25 (≈ 17.6 µM) | 6.25 (≈ 17.6 µM) | 6.25 (≈ 17.6 µM) | > 50 | > 200 | –

From ChEMBL document CHEMBL5634090, “Design of phenothiazine-based cationic amphiphilic derivatives incorporating arginine residues: Potential membrane-active broad-spectrum antimicrobials combating pathogenic bacteria in vitro and in vivo” (Eur J Med Chem, 2023)
